In ChEMBL document CHEMBL1127525, “Synthesis and antitumor activities of novel 6-5 fused ring heterocycle antifolates: N-[4-[omega-(2-amino-4-substituted-6,7-dihydrocyclopenta [d]pyrimidin-5-yl)alkyl]benzoyl]-L-glutamic acids” (J Med Chem, 1994):

Tests used:
P388 [1] = assay: Inhibitory concentration of compound was tested against P388:Methotrexate resistant cells tumor growth cell line; type: functional, cell-based; settings: Mus musculus
Colon 26 [2] = assay: (§1) Inhibitory concentration of compound was tested against Colon 26 tumor growth cell line; type: functional, cell-based; settings: Mus musculus
KB = assay: Inhibitory concentration of compound was tested against KB tumor growth cell line; type: functional, cell-based; settings: Homo sapiens
P388 (Mus musculus) = assay: Inhibitory concentration of compound was tested against P388 tumor growth cell line
Dihydrofolate reductase [3] = target: T1, Dihydrofolate reductase (Mus musculus, UniProt P00375); assay: Compound was tested for the inhibition of dihydrofolate reductase in P388 cells; type: cell-based
T1 sequence (P00375 whole entry): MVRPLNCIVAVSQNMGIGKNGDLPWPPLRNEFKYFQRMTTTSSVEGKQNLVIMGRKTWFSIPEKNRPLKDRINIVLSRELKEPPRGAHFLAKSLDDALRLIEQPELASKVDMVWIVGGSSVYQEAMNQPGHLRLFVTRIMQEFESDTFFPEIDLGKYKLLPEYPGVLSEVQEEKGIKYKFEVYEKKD

MC-38 = assay: Inhibitory concentration of compound was tested against Colon 38 tumor growth cell line; type: functional, cell-based; settings: Mus musculus
P388 [4] = assay: inhibitory concentration of compound was tested against P388:Methotrexate resistant cells tumor growth cell line; type: functional, cell-based; settings: Mus musculus
Mus musculus [5] = assay: Compound was evaluated for the activity against LC-6 Non-Small cell lung carcinoma in mice by tumor weight assay at 20 (mg/kg) dose experiment-2; type: functional
Mus musculus [6] = assay: Compound was evaluated for the life span assay against P388 Leukemia in mice (Controls died in an average of 9.8 days) at 3.13 (mg/kg) dose; type: functional
Mus musculus [7] = assay: Compound was evaluated for the life span assay against P388 Leukemia in mice (Controls died in an average of 9.8 days) at 12.5 (mg/kg) dose; type: functional
Mus musculus [8] = assay: Compound was evaluated for the life span assay against P388 Leukemia in mice (Controls died in an average of 9.8 days) at 0.39 (mg/kg) dose; type: functional
P388 [9] = assay: Inhibitory concentration of compound was tested against P388 tumor growth cell line; type: functional, cell-based; settings: Mus musculus
Mus musculus [10] = assay: Compound was evaluated for the activity against LC-6 Non-Small cell lung carcinoma in mice by tumor weight assay at 10 (mg/kg) dose experiment-2; type: functional
Mus musculus [11] = assay: Compound was evaluated for the life span assay against P388 Leukemia in mice (Controls died in an average of 9.8 days) at 0.2 (mg/kg) dose; type: functional
Mus musculus [12] = assay: Compound was evaluated for the activity against LC-6 Non-Small cell lung carcinoma in mice by tumor weight assay at 40 (mg/kg) dose experiment-2; type: functional
Mus musculus [13] = assay: Compound was evaluated for the activity against LC-6 Non-Small cell lung carcinoma in mice by tumor weight assay at 10 (mg/kg) dose in experiment-1; type: functional
Mus musculus [14] = assay: Compound was evaluated for the activity against Colon 26 Mouse colorectal carcinoma in mice by tumor weight assay at 10 (mg/kg) dose; type: functional
Mus musculus [15] = assay: Compound was evaluated for the activity against Colon 26 Mouse colorectal carcinoma in mice by tumor weight assay at 20 (mg/kg) dose; type: functional
Mus musculus [16] = assay: Compound was evaluated for the activity against LC-6 Non-Small cell lung carcinoma in mice by tumor weight assay at 20 (mg/kg) dose experiment-1; type: functional
Mus musculus [17] = assay: Compound was evaluated for the life span assay against P388 Leukemia in mice (Controls died in an average of 9.8 days) at 1.56 (mg/kg) dose; type: functional
Mus musculus [18] = assay: Compound was evaluated for the life span assay against P388 Leukemia in mice (Controls died in an average of 9.8 days) at 0.78 (mg/kg) dose; type: functional
Colon 26 [19] = assay: Inhibitory concentration of compound was tested against Colon 26 Mouse Colorectal Carcinoma on 4 hour exposure; type: functional, cell-based; settings: Colon 26, 4 h
Mus musculus [20] = assay: Compound was evaluated for the life span assay against P388 Leukemia in mice (Controls died in an average of 9.8 days) at […] (mg/kg) dose; type: functional
Mus musculus [21] = assay: Compound was evaluated for the activity against Colon 26 Mouse colorectal carcinoma in mice by tumor weight assay at 2.5 (mg/kg) dose; type: functional
Mus musculus [22] = assay: Compound was evaluated for the activity against Colon 26 Mouse colorectal carcinoma in mice by tumor weight assay at 5 (mg/kg) dose; type: functional
Mus musculus [23] = assay: Compound was evaluated for the life span assay against P388 Leukemia in mice (Controls died in an average of 9.8 days) at 50 (mg/kg) dose; type: functional
Thymidylate synthase = target: T2, Thymidylate synthase (Lactobacillus casei, UniProt P00469); assay: Binding affinity against TS
T2 sequence (P00469 whole entry): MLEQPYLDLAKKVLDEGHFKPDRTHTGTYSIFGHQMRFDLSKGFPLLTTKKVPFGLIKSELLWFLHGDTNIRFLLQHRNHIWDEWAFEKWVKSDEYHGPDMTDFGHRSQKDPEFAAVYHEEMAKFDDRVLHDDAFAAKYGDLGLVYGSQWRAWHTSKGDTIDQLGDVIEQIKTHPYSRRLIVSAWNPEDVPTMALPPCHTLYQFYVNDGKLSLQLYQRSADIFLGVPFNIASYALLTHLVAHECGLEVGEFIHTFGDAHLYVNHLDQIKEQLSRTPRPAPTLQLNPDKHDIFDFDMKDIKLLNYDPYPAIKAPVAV

Dihydrofolate reductase [24] = target: T1, Dihydrofolate reductase; assay: Binding affinity against dihydrofolate reductase
Mus musculus [25] = assay: Compound was evaluated for the activity against LC-6 Non-Small cell lung carcinoma in mice by tumor weight assay at 5 (mg/kg) dose experiment-1; type: functional
Mus musculus [26] = assay: Compound was evaluated for the activity against LC-6 Non-Small cell lung carcinoma in mice by tumor weight assay at 2.5 (mg/kg) dose experiment-1; type: functional
Mus musculus [27] = assay: Compound was evaluated for the activity against LC-6 Non-Small cell lung carcinoma in mice by tumor weight assay at 5 (mg/kg) dose experiment-2; type: functional
Mus musculus [28] = assay: Compound was evaluated for the activity against Colon 26 Mouse colorectal carcinoma in mice by tumor weight assay at 1.25 (mg/kg) dose; type: functional
Mus musculus [29] = assay: Compound was evaluated for the activity against Colon 26 Mouse colorectal carcinoma in mice by tumor weight assay at 0.3 (mg/kg) dose; type: functional
Mus musculus [30] = assay: Compound was evaluated for the life span assay against P388 Leukemia in mice (Controls died in an average of 9.8 days) at 0.05 (mg/kg) dose; type: functional
Mus musculus [31] = assay: Compound was evaluated for the activity against LC-6 Non-Small cell lung carcinoma in mice by tumor weight assay at 2.5 (mg/kg) dose experiment-2; type: functional
Mus musculus [32] = assay: Compound was evaluated for the activity against LC-6 Non-Small cell lung carcinoma in mice by tumor weight assay at 1.3 (mg/kg) dose experiment-2; type: functional
Mus musculus [33] = assay: Compound was evaluated for the life span assay against P388 Leukemia in mice (Controls died in an average of 9.8 days) at 0.1 (mg/kg) dose; type: functional
Mus musculus [34] = assay: Compound was evaluated for the activity against Colon 26 Mouse colorectal carcinoma in mice by tumor weight assay at 0.6 (mg/kg) dose; type: functional
Mus musculus [35] = assay: Compound was evaluated for the activity against LC-6 Non-Small cell lung carcinoma in mice by tumor weight assay at 10 (mg/kg) dose; type: functional
Mus musculus [36] = assay: Compound was evaluated for the life span assay and the activity against P388 Leukemia in mice (Controls died in an average of 9.8 days) at 3.13 (mg/kg) dose; type: functional
Mus musculus [37] = organism: Mus musculus; assay: as §1; type: functional
Mus musculus [38] = assay: Compound was evaluated for the activity against LC-6 Non-Small cell lung carcinoma in mice by tumor weight assay at 40 (mg/kg) dose; type: functional
Mus musculus [39] = assay: Compound was evaluated for the activity against LC-6 Non-Small cell lung carcinoma in mice by tumor weight assay at 20 (mg/kg) dose; type: functional
Mus musculus [40] = assay: Compound was evaluated for the activity against Colon 26 Mouse colorectal carcinoma in mice by tumor weight assay at 40 (mg/kg) dose

Q: What does the source list for `Nc1nc(O)c2c(n1)CCC2CCCc1ccc(C(=O)NC(CCC(=O)O)C(=O)O)cc1` (stereo unspecified)?
A: IC50 (P388 [1]): > 1000 nM; IC50 (Colon 26 [2]): > 1000 nM; IC50 (KB): > 1000 nM; IC50 (P388 (Mus musculus)): > 1000 nM

Q: Which results are given for `Nc1nc2c(c(=O)[nH]1)C(CCc1ccc(C(=O)NC(CCC(=O)O)C(=O)O)cc1)CC2` (stereo unspecified)?
A: IC50 (Dihydrofolate reductase [3]): 2.1 nM; IC50 (MC-38): > 1000 nM; IC50 (P388 [4]): > 1000 nM; IC50 (Colon 26 [2]): > 1000 nM; IC50 (KB): > 1000 nM; IC50 (P388 (Mus musculus)): > 1000 nM

Q: What does the source list for `CCC(Cc1cnc2nc(N)nc(N)c2n1)c1ccc(C(=O)N[C@@H](CCC(=O)O)C(=O)O)cc1` (stereo partly specified) [EDATREXATE]?
A: IC50 (MC-38): 11 nM; T/C (Mus musculus [5]): 1%; T/C (Mus musculus [6]): 162%; T/C (Mus musculus [7]): 157%; T/C (Mus musculus [8]): 135%; IC50 (P388 [9]): 4.3 nM; T/C (Mus musculus [10]): 22%; T/C (Mus musculus [11]): 114%; IC50 (P388 [1]): 44 nM; T/C (Mus musculus [12]): 1%; T/C (Mus musculus [13]): 63%; T/C (Mus musculus [14]): 70%; T/C (Mus musculus [15]): 64%; T/C (Mus musculus [16]): 38%; T/C (Mus musculus [17]): 155%; IC50 (Colon 26 [2]): 4.8 nM; IC50 (KB): 3 nM; T/C (Mus musculus [18]): 136%; IC50 (Colon 26 [19]): > 40000 nM; T/C (Mus musculus [20]): 165%

Q: How did the IC50 (Dihydrofolate reductase [3]) turn out when `Nc1nc(N)c2c(n1)CCC2CCc1ccc(C(=O)NC(CCC(=O)O)C(=O)O)cc1` (stereo unspecified) was run?
A: 72 nM

Q: And the IC50 (MC-38)?
A: 10 nM

Q: And the T/C (Mus musculus [6])?
A: 135%

Q: And the T/C (Mus musculus [7])?
A: 147%

Q: And the IC50 (P388 [9])?
A: 7.1 nM

Q: And the IC50 (P388 [1])?
A: 64 nM

Q: And the T/C (Mus musculus [21])?
A: 95%

Q: And the T/C (Mus musculus [14])?
A: 41%

Q: What about the IC50 (Colon 26 [2]) of the same compound?
A: 8 nM

Q: What about the IC50 (KB) of the same compound?
A: 4.1 nM

Q: What about the T/C (Mus musculus [22]) of the same compound?
A: 62%

Q: And the T/C (Mus musculus [23])?
A: 148%

Q: And the T/C (Mus musculus [18])?
A: 129%

Q: And the IC50 (Colon 26 [19])?
A: 190 nM

Q: Which Ki (Thymidylate synthase) does the source give for `Nc1nc2[nH]cc(CCc3ccc(C(=O)N[C@@H](CCC(=O)O)C(=O)O)cc3)c2c(=O)[nH]1` [PEMETREXED] here?
A: 550 nM

Q: And the Ki (Dihydrofolate reductase [24])?
A: 560 nM

Q: Which results are given for `Nc1nc(N)c2c(n1)CCC2CCCc1ccc(C(=O)NC(CCC(=O)O)C(=O)O)cc1` (stereo unspecified)?
A: IC50 (MC-38): 5.1 nM; T/C (Mus musculus [25]): 23%; T/C (Mus musculus [6]): 138%; T/C (Mus musculus [8]): 158%; T/C (Mus musculus [26]): 6%; T/C (Mus musculus [27]): 1%; T/C (Mus musculus [28]): 38%; T/C (Mus musculus [29]): 71%; T/C (Mus musculus [30]): 120%; T/C (Mus musculus [11]): 147%; IC50 (P388 [1]): 19 nM; T/C (Mus musculus [31]): 9%; T/C (Mus musculus [21]): 31%; T/C (Mus musculus [32]): 4%; T/C (Mus musculus [17]): 180%; IC50 (Colon 26 [2]): 3 nM; T/C (Mus musculus [33]): 130%; IC50 (KB): 1.7 nM; T/C (Mus musculus [34]): 49%; T/C (Mus musculus [18]): 170%; IC50 (Colon 26 [19]): 1700 nM

Q: For `CN(Cc1cnc2nc(N)nc(N)c2n1)c1ccc(C(=O)N[C@@H](CCC(=O)O)C(=O)O)cc1` [METHOTREXATE], which T/C (Mus musculus [35]) is on record?
A: 100%

Q: What about the T/C (Mus musculus [36]) of the same compound?
A: 149%

Q: What about the IC50 (P388 [9]) of the same compound?
A: 23 nM

Q: And the IC50 (Mus musculus [37])?
A: 31 nM

Q: What about the IC50 (P388 [1]) of the same compound?
A: 223 nM

Q: And the T/C (Mus musculus [14])?
A: 71%

Q: And the T/C (Mus musculus [15])?
A: 65%

Q: What about the T/C (Mus musculus [38]) of the same compound?
A: 35%

Q: What about the T/C (Mus musculus [39]) of the same compound?
A: 53%

Q: And the IC50 (KB)?
A: 19 nM

Q: And the T/C (Mus musculus [18])?
A: 122%

Q: And the T/C (Mus musculus [40])?
A: 31%

Q: And the IC50 (Colon 26 [19])?
A: > 40000 nM

Q: What about the T/C (Mus musculus [20]) of the same compound?
A: 168%
